Data reported in patent publication US11014934B2, “Antiseptic drug” (AO “TATKHIMFARMPREPARATY”, priority 2017, dated 2021).
Like-named read-outs stand apart in the source and are kept apart here.

What was measured:
Experiment in all cases: MIC, serial dilutions in Müller-Hinton broth
Assay type in all cases: cell-based
S. aureus 1053 MRSA = tested on: S. aureus 1053 MRSA
Experimental: (§1) A comparative assessment of the spectrum of antibacterial action was carried out on archival and clinical strains of gram-positive and gram-negative microorganisms in accordance with the [Opredeleniye chuvstvitel'nosti mikroorganizmov k antibakterial'nym preparatam (Metodicheskiye ukazaniya MUK 4.2.1890-04). Utverzhdeny i vvedeny v deystviye Glavnym gosudarstvennym sanitarnym vrachom Rossiyskoy Federatsii G. G. Onishchenko 04.03.2004 g. Determination of the sensitivity of microorganisms to antibacterial drugs (Guidelines MUK 4.2.1890-04). Approved and put into effect by the Chief State Sanitary Doctor of the Russian Federation G. G. Onishchenko on 4 Mar. 2004].
(§2) The value of the minimum inhibitory concentration (MIC) was determined by the method of serial dilutions on Müller-Hinton broth using 96-well sterile plates. Two-fold dilutions of the test substances in a nutrient medium were prepared. The final concentrations were 1-128 ug/ml. The growth of cultures was assessed visually, comparing the growth of microorganisms in the presence of test compounds with the growth of culture without them. […] The first lowest concentration of the studied substance (from a series of consecutive dilutions), where bacterial growth is not visually determined, is considered to be the minimum inhibitory concentration (MIC). MIC was determined by the method of serial dilutions in broth with increment=2, so the differences of neighboring dilutions are not considered to be significant. In each experience there is a positive (broth with growing culture) and a negative (broth without growing culture) control.
(§3) To determine the MIC, 10 μl of culture medium was taken from those wells in which growth was not observed, and inoculation was performed on a dense Müller-Hinton broth. For the preparation of the inoculum, a pure, daily culture of gram-positive and gram-negative microorganisms grown on a dense nutrient medium was used. Nutrient medium is Müller-Hinton broth, which was prepared from dry media (Müller-Hinton broth, Acumedia, Baltimore), cultivation was carried out on agarized Müller-Hinton broth, including an additional 2% agar. The media were autoclaved at 121° C. for 15 minutes. In a sterile isotonic solution of sodium chloride, a suspension of microorganisms was prepared, adjusting the inoculum density to 0.5 according to the McFarland standard (1.5·10^8 CFU/ml). Then, the resulting inoculum was diluted to a concentration of 10^7 CFU/ml with Müller-Hinton broth. The inoculum was used within 15 minutes after preparation; the purity of the bacterial strains was monitored before each experiment.
(§4) 100 μl of Müller-Hinton broth was added to the wells of each plate; The tested substance was introduced into the first well at a concentration of 128 μg/ml in a volume of 100 μl and its concentration was adjusted to 0.5 μg/ml by consecutive two-fold dilution. Then, the prepared inoculum (100 μI) was added to each well, thereby diluting twice the concentration of the studied compounds. […] In addition, the purity of nutrient media and solvents was monitored. The plates were incubated in a thermostat at 37° C. for 24 hours. The growth of cultures was assessed visually, comparing the growth of microorganisms in the presence of test compounds with the growth of culture without them.
(§5) For the MIC was taken the minimum concentration of the studied compounds, providing complete suppression of the visible growth of the studied strains of microorganisms. The maximum value obtained in three independent experiments was taken as the MIC of the compound.

Moraxella sp. 764 = tested on: Moraxella sp. 764
Experimental: as §1, §2, §3, §4, §5

[1] = tested on: Ps. aeruginosa ATTC 27853
Experimental: as §1, §2, §3, §4, §5

S. aureus ATCC 209p = tested on: S. aureus ATCC 209p
Experimental: as §1, §2, §3, §4, §5

E. faecium 32 = tested on: E. faecium 32
Experimental: as §1, §2, §3, §4, §5

E. faecium 3030 = tested on: E. faecium 3030
Experimental: as §1, §2, §3, §4, §5

E. faecium 3028 = tested on: E. faecium 3028
Experimental: as §1, §2, §3, §4, §5

Kl. pneumoniae 1953 PR = tested on: Kl. pneumoniae 1953 PR
Experimental: as §1, §2, §3, §4, §5

E. faecium 31 = tested on: E. faecium 31
Experimental: as §1, §2, §3, §4, §5

S. marcescens = tested on: S. marcescens
Experimental: as §1, §2, §3, §4, §5

E. faecalis 3047 = tested on: E. faecalis 3047
Experimental: as §1, §2, §3, §4, §5

Acinetobacter spp. 3 = tested on: Acinetobacter spp. 3
Experimental: as §1, §2, §3, §4, §5

Klebsiella spp. 12 = tested on: Klebsiella spp. 12
Experimental: as §1, §2, §3, §4, §5

A. baumannii 1440 = tested on: A. baumannii 1440
Experimental: as §1, §2, §3, §4, §5

M. luteus = tested on: M. luteus
Experimental: as §1, §2, §3, §4, §5

S. haemoliticus 837 MRSA = tested on: S. haemoliticus 837 MRSA
Experimental: as §1, §2, §3, §4, §5

S. aureus 967 MRSA = tested on: S. aureus 967 MRSA
Experimental: as §1, §2, §3, §4, §5

E. faecalis 23 = tested on: E. faecalis 23
Experimental: as §1, §2, §3, §4, §5

Pseudomonas spp.6 = details: inoculum 10^7 CFU/ml
Experimental: as §1, §2, §3, §4, §5

S. aureus 1065 MRSA = tested on: S. aureus 1065 MRSA
Experimental: as §1, §2, §3, §4, §5

Kl. pneumoniae 1812 PR = tested on: Kl. pneumoniae 1812 PR
Experimental: as §1, §2, §3, §4, §5

S. aureus ATCC 29213 = tested on: S. aureus ATCC 29213
Experimental: as §1, §2, §3, §4, §5

## CCCCCCCCCCCCCC(=O)NCCC[N+](C)(C)Cc1ccccc1.O.[Cl-] [Miramistin, benzyldimethyl [3-(myristoylamino)propyl]-ammonium chloride monohydrate]
S. aureus 1053 MRSA; Staphylococcus aureus, MRSA
  MIC: 4 mg/L
Moraxella sp. 764; Moraxella, SP.764
  MIC: 64 mg/L
[1]; Pseudomonas aeruginosa, ATTC27853
  MIC: > 64 mg/L
S. aureus ATCC 209p; Staphylococcus aureus, ATCC209P
  MIC: 8 mg/L
E. faecium 32; Enterococcus faecium, 32
  MIC: < 0.5 mg/L
E. faecium 3030; Enterococcus faecium, 3030
  MIC: 0.5 mg/L
E. faecium 3028; Enterococcus faecium, 3028
  MIC: 16 mg/L
Kl. pneumoniae 1953 PR; Klebsiella pneumoniae, 1953PR
  MIC: 64 mg/L
E. faecium 31; Enterococcus faecium, 31
  MIC: 4 mg/L
S. marcescens; Serratia marcescens
  MIC: 32 mg/L
E. faecalis 3047; Enterococcus faecalis, 3047
  MIC: 2 mg/L
Acinetobacter spp. 3; Acinetobacter, SPP.3
  MIC: 64 mg/L
Klebsiella spp. 12; Klebsiella, SPP.12
  MIC: > 64 mg/L
A. baumannii 1440; Acinetobacter baumannii, 1440
  MIC: 64 mg/L
M. luteus; Micrococcus luteus
  MIC: 2 mg/L
S. haemoliticus 837 MRSA
  MIC: 64 mg/L
S. aureus 967 MRSA; Staphylococcus aureus, MRSA
  MIC: 16 mg/L
E. faecalis 23; Enterococcus faecalis, 23
  MIC: 4 mg/L
Pseudomonas spp.6; read-out: MIC
  MIC: > 64 mg/L
S. aureus 1065 MRSA; Staphylococcus aureus, MRSA
  MIC: 8 mg/L
Kl. pneumoniae 1812 PR; Klebsiella pneumoniae, 1812PR
  MIC: 64 mg/L
S. aureus ATCC 29213; Staphylococcus aureus, ATCC29213
  MIC: 16 mg/L

## CCCCCCCCCCCC[N+](C)(C)Cc1cnc(C[N+](C)(C)CCCCCCCCCCCC)c2c1COC(CC)O2 (stereo not drawn) [Compound I, 5,8-(Bis(methylene (N, N-dimethyl-N-dodecylammonium))-2-ethyl-4H-[1,3]dioxino [4,5-c]pyridiniumdichloride]
S. aureus 1053 MRSA; Staphylococcus aureus, S. aureus 1053 MRSA, inoculum 10^7 CFU/ml, read-out: MIC
  MIC: 2 mg/L
Moraxella sp. 764; Moraxella sp. 764, inoculum 10^7 CFU/ml, read-out: MIC
  MIC: 8 mg/L
[1]; Pseudomonas aeruginosa, ATTC27853, Ps. aeruginosa ATTC 27853, inoculum 10^7 CFU/ml, read-out: MIC
  MIC: 4 mg/L
S. aureus ATCC 209p; Staphylococcus aureus, ATCC209P, S. aureus ATCC 209p, inoculum 10^7 CFU/ml, read-out: MIC
  MIC: 2 mg/L
E. faecium 32; Enterococcus faecium, E. faecium 32, inoculum 10^7 CFU/ml, read-out: MIC
  MIC: 0.03 mg/L
E. faecium 3030; Enterococcus faecium, E. faecium 3030, inoculum 10^7 CFU/ml, read-out: MIC
  MIC: 1 mg/L
E. faecium 3028; Enterococcus faecium, E. faecium 3028, inoculum 10^7 CFU/ml, read-out: MIC
  MIC: 1 mg/L
Kl. pneumoniae 1953 PR; Klebsiella pneumoniae, Kl. pneumoniae 1953 PR, inoculum 10^7 CFU/ml, read-out: MIC
  MIC: 2 mg/L
E. faecium 31; Enterococcus faecium, E. faecium 31, inoculum 10^7 CFU/ml, read-out: MIC
  MIC: 0.03 mg/L
S. marcescens; Serratia marcescens, S. marcescens, inoculum 10^7 CFU/ml, read-out: MIC
  MIC: 4 mg/L
E. faecalis 3047; Enterococcus faecalis, E. faecalis 3047, inoculum 10^7 CFU/ml, read-out: MIC
  MIC: 4 mg/L
Acinetobacter spp. 3; Acinetobacter spp. 3, inoculum 10^7 CFU/ml, read-out: MIC
  MIC: 8 mg/L
Klebsiella spp. 12; Klebsiella spp. 12, inoculum 10^7 CFU/ml, read-out: MIC
  MIC: 16 mg/L
A. baumannii 1440; Acinetobacter baumannii, A. baumannii 1440, inoculum 10^7 CFU/ml, read-out: MIC
  MIC: 8 mg/L
M. luteus; Micrococcus luteus, M. luteus, inoculum 10^7 CFU/ml, read-out: MIC
  MIC: 2 mg/L
S. haemoliticus 837 MRSA; S. haemoliticus 837 MRSA, inoculum 10^7 CFU/ml, read-out: MIC
  MIC: 8 mg/L
S. aureus 967 MRSA; Staphylococcus aureus, S. aureus 967 MRSA, inoculum 10^7 CFU/ml, read-out: MIC
  MIC: 16 mg/L
E. faecalis 23; Enterococcus faecalis, E. faecalis 23, inoculum 10^7 CFU/ml, read-out: MIC
  MIC: 0.03 mg/L
Pseudomonas spp.6; read-out: MIC
  MIC: 16 mg/L
S. aureus 1065 MRSA; Staphylococcus aureus, S. aureus 1065 MRSA, inoculum 10^7 CFU/ml, read-out: MIC
  MIC: 2 mg/L
Kl. pneumoniae 1812 PR; Klebsiella pneumoniae, Kl. pneumoniae 1812 PR, inoculum 10^7 CFU/ml, read-out: MIC
  MIC: 64 mg/L
S. aureus ATCC 29213; Staphylococcus aureus, ATCC29213, S. aureus ATCC 29213, inoculum 10^7 CFU/ml, read-out: MIC
  MIC: 4 mg/L

## alkyldimethyl(phenylmethyl) ammonium chloride [Benzalconium chloride]
S. aureus 1053 MRSA; S. aureus 1053 MRSA, inoculum 10^7 CFU/ml
  MIC: 4 mg/L
Moraxella sp. 764; Moraxella sp. 764, inoculum 10^7 CFU/ml
  MIC: 4 mg/L
[1]; Ps. aeruginosa ATTC 27853, inoculum 10^7 CFU/ml
  MIC: >64 mg/L
S. aureus ATCC 209p; S. aureus ATCC 209p, inoculum 10^7 CFU/ml
  MIC: 4 mg/L
E. faecium 32; E. faecium 32, inoculum 10^7 CFU/ml
  MIC: <0.5 mg/L
E. faecium 3030; E. faecium 3030, inoculum 10^7 CFU/ml
  MIC: 0.5 mg/L
E. faecium 3028; E. faecium 3028, inoculum 10^7 CFU/ml
  MIC: 4 mg/L
Kl. pneumoniae 1953 PR; Kl. pneumoniae 1953 PR, inoculum 10^7 CFU/ml
  MIC: 16 mg/L
E. faecium 31; E. faecium 31, inoculum 10^7 CFU/ml
  MIC: <0.5 mg/L
S. marcescens; S. marcescens, inoculum 10^7 CFU/ml
  MIC: 2 mg/L
E. faecalis 3047; E. faecalis 3047, inoculum 10^7 CFU/ml
  MIC: 2 mg/L
Acinetobacter spp. 3; Acinetobacter spp. 3, inoculum 10^7 CFU/ml
  MIC: 4 mg/L
Klebsiella spp. 12; Klebsiella spp. 12, inoculum 10^7 CFU/ml
  MIC: 2 mg/L
A. baumannii 1440; A. baumannii 1440, inoculum 10^7 CFU/ml
  MIC: 32 mg/L
M. luteus; M. luteus, inoculum 10^7 CFU/ml
  MIC: 1 mg/L
S. haemoliticus 837 MRSA; S. haemoliticus 837 MRSA, inoculum 10^7 CFU/ml
  MIC: 16 mg/L
S. aureus 967 MRSA; S. aureus 967 MRSA, inoculum 10^7 CFU/ml
  MIC: 8 mg/L
E. faecalis 23; E. faecalis 23, inoculum 10^7 CFU/ml
  MIC: <0.5 mg/L
Pseudomonas spp.6
  MIC: 16 mg/L
S. aureus 1065 MRSA; S. aureus 1065 MRSA, inoculum 10^7 CFU/ml
  MIC: 4 mg/L
Kl. pneumoniae 1812 PR; Kl. pneumoniae 1812 PR, inoculum 10^7 CFU/ml
  MIC: 64 mg/L
S. aureus ATCC 29213; S. aureus ATCC 29213, inoculum 10^7 CFU/ml
  MIC: 2 mg/L
